Drawing on BindingDB's records for patent US20250270173 (Gilgamesh Pharmaceuticals, 2025), this text covers Ki for 12 molecules.

What is called Ki is a dissociation constant, usually derived from enzyme kinetics or from competition with a known ligand. A lower Ki goes with a stronger hold on the target.

The target of this experiment is 5-hydroxytryptamine receptor 2A (Homo sapiens, UniProt P28223). Nature of the experiment: 5-HT2A Receptor Binding Assay.
Sequence of 5-hydroxytryptamine receptor 2A (P28223 whole entry): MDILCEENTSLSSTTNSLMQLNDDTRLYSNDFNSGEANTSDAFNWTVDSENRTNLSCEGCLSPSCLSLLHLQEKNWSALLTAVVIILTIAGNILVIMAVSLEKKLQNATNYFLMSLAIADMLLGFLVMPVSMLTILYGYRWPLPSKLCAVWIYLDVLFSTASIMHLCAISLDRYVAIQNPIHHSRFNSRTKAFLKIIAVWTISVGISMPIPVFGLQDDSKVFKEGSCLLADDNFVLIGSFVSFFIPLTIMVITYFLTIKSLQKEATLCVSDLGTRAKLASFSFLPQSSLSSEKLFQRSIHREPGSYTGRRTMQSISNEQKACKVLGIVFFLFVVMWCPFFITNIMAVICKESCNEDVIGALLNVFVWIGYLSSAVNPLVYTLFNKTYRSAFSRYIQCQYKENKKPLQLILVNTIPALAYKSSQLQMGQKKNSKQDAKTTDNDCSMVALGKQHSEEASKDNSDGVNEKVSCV

In turn, `COc1cc(C)c(OC)nc1CCN` [US20250270173, Compound 8] came in with a Ki of 1120 nM.

`CCCCCc1nc(OC)c(CC(N)CC)nc1OC` (configuration not stated) [US20250270173, Compound 12] had a Ki of 693 nM.

As to `CCSc1cc(OC)c(CC(C)N)nc1OC` (configuration not stated) [US20250270173, Compound 23], affinity was put at a Ki of 344 nM.

As to `COc1cc(Br)c(OC)nc1CC(C)N` (configuration not stated) [US20250270173, Compound 6], the Ki was 168 nM.

Turning to `COc1cc(C)c(OC)nc1CC(C)N` (configuration not stated) [US20250270173, Compound 5], the affinity corresponds to a Ki of 1170 nM.

As for `CCSc1cc(OC)c(CCN)nc1OC` [US20250270173, Compound 22], the affinity corresponds to a Ki of 82.8 nM.

`CCCCCCc1cc(OC)c(CCN)nc1OC` [US20250270173, Compound 29] returned a Ki of 0.91 nM. Compared with the last molecule, the Ki is about 91-fold lower.

For the molecule `CCCCCc1nc(OC)c(CC(N)CC)cc1OC` (configuration not stated) [US20250270173, Compound 11], the affinity corresponds to a Ki of 273 nM. Compared with the last molecule, the Ki is about 300-fold higher.

As for `CCCc1cc(OC)c(CC(N)CC)nc1OC` (configuration not stated) [US20250270173, Compound 37], affinity was put at a Ki of 106 nM. This Ki is about 2.6-fold lower than that of the molecule before.

`CCSc1cc(OC)c(CC(N)CC)nc1OC` (configuration not stated) [US20250270173, Compound 24] showed a Ki of 649 nM.

The molecule `COc1cc(Br)c(OC)nc1CCN` [US20250270173, Compound 9] gave a Ki of 99.2 nM.

In the case of `COc1cc(C2CC2)c(OC)nc1CCN` [US20250270173, Compound 26], the Ki was determined as 150 nM.
